System: choroidal neovascularization (CNV)
Test: Laser-induced choroidal neovascularization (CNV) in mice, rupture of Bruch's membrane
Assay type: in vivo, C57BL/J mice
Settings: single 5 μl intravitreal injection immediately after laser, day 14 post-laser
From the text: Choroidal neovascularization (CNV) was induced in C57BL/J mice by rupturing Bruch's membrane via focal laser photocoagulation (FIG. 3). (Tobe T, et al., AM. J. PATHOL., 153:1641-1646 (1998)). Three to four retinal burns were placed in randomly assigned eye using the Alcon 532 nm EyeLite laser (75 μm spot size, 0.1 seconds duration, 120 mW) with a slit lamp delivery system. The laser bums were used to generate a rupture in Bruch's membrane, which was indicated ophthalmoscopically by the formation of a bubble under the retina. Only mice with laser burns that produced three bubbles per eye were included in the study. Burns were typically placed at the 3, 6, 9 or 12 o'clock positions in the posterior pole of the retina, avoiding the branch retinal arteries and veins.
Each mouse was randomly assigned into one of the following treatment groups after laser: noninjected controls, sham-injected controls, vehicle-injected mice, or one of three anecortave acetate-injected groups. Control mice received laser photocoagulation in both eyes, where one eye received a sham injection, i.e. a pars plana needle puncture. For intravitreal-injected animals, one laser-treated eye received a 5 μl intravitreal injection of 0%, 0.1%, 1%, or 10% anecortave acetate. The intravitreal injection was performed immediately after laser photocoagulation.
Fourteen days post-laser, all mice were euthanized and systemically perfused with fluorescein-labeled dextran. Eyes were then harvested and prepared as choroidal flat mounts, and the 2-dimensional CNV area was quantified with computerized digital analysis. (Mori K., et al., AM. J. PATHOL. 159:313-320 (2001)). The median CNV area/burn per mouse per treatment was used for statistical analysis; P≦0.05 was considered significant.

Q: `CC(=O)OCC(=O)[C@@]1(O)CC[C@H]2[C@@H]3CCC4=CC(=O)CC[C@]4(C)C3=CC[C@@]21C` [anecortave acetate, 4,9(11)-pregnadien-17α,21-diol-3,20-dione-21-acetate] was tested. Which “CNV versus vehicle-injected controls” value (0.1% anecortave acetate) did it give?
A: Its value is “No difference”.

Q: What about the “CNV versus vehicle-injected controls” value (1% anecortave acetate) of the same compound?
A: Its value is “No difference”.

Q: What about the “inhibition of CNV (median CNV area/burn) as compared to vehicle-injected eyes” value (10% anecortave acetate, Mann-Whitney P<0.001) of the same compound?
A: Its value is 57.8%.

Source: US20050239760A1, “Angiostatic agents and methods and compositions for controlling ocular hypertension” (Alcon, Inc., priority 2004, published 2005)
